Source: publication PMC7998309, “Structural-Based Optimizations of the Marine-Originated Meridianin C as Glucose Uptake Agents by Inhibiting GSK-3β” (Marine Drugs, 2021)

Experiments:
HepG2 cells [1] = assay: Cell glucose uptake assay in HepG2 cells; format: cell-based, human; settings: relative glucose uptake at 5 µM in HepG2 cells, 3 h, compared with original glucose concentration of the medium; na = not active at 5 µM
Protocol: (§1) The hepatocyte cell line HepG2 cells obtained from the Type Culture Collection of the Chinese Academy of Sciences (Shanghai, China) were maintained in high-glucose DMEM (Gibco) supplemented with 10% fetal bovine serum (FBS) and 1% penicillin-streptomycin in an atmosphere of 5% CO2 at 37 °C.
Into a 96-well plate, 5 × 10^3 HepG2 cells per well were seeded. After 48 h, phenol red-free DMEM (Gibco) with 1% FBS was transferred to deprive the cells overnight, and then the tested compounds dissolved in a glucose-HEPES buffer (glucose concentration was 100 µg/mL) at a concentration of 5 µM were added to the culture system. Three hours later, the culture supernatants were collected and the glucose concentrations were detected using the Glucose (GO) Assay Kit (Sigma-Aldrich Corp.). Compared with the original glucose concentration of the buffer, the relative glucose uptake was calculated.

[2] = MTT assay for cell viability (cytotoxicity); format: cell-based, human; settings: human; HepG2 cells, 48 h incubation, MTT
Protocol: as §1
(§2) Into a 96-well plate, 1 × 10^3 HepG2 cells per well were seeded. After 24 h, stock solutions of test compounds in DMSO were diluted in DMEM to ≤0.1% final DMSO concentration. Cells were treated with various concentrations (2.5–25 µM) of tested compounds for 48 h, and the MTT solution (0.5 mg/mL) was added. After 4 h of incubation at 37 °C for MTT-formazan formation, the supernatant was discarded and 100 µL of DMSO was applied into each well to dissolve formazan crystals. Absorbance at 490 nm was determined spectrophotometrically by using a microplate reader (Epoch, BioTek Instruments, Inc., Winooski, VT, USA).

human GSK-3β = target: T1, human GSK-3β (Homo sapiens, UniProt P49841); assay: Inhibition of recombinant GSK-3β (Z-lyte assay); format: biochemical; settings: for IC50: human GSK-3β, top concentration 30 μM
T1 construct: purchased Invitrogen
Protocol: The activity of recombinant GSK-3β (Invitrogen) was measured in a Z-lyte assay of Invitrogen. In this assay, 100 nL of the compound solution in DMSO was transferred to a 384-well assay plate (the compound got threefold serial dilution, and the top concentration of the compound was 30 μM in the final reaction mixture). Then 5 μL of an enzyme (2 nM) and Ser/Thr 9 peptide (4 μM) mixture was added. After the enzyme and peptide pre-incubation with the compound for 30 min at 23 °C, 5 μL of ATP (12 μM) solution was added. The plate was incubated for 60 min at 23 °C. The reaction was stopped with 5 μL of development reagent. Fluorescence signals were detected with Envision (PerkinElmer, America) after 30 min of incubation, and the emission ratio (RFU 460 nm/RFU 535 nm) was used to analyze the data. The relative IC50 was reported using four-parameter logistic fit of IDBS Xlfit software. The IC50 values were calculated using the following equation: %Phosphorylation = 1 - (Emission Ratio × F100%) - C100%/(C0% - C100%) + [Emission Ratio × (F100% - F0%)] where
Emission ratio = Coumarin/Fluorescein ratio of sample wells
C100% = Average coumarin emission signal of the 100% phos. control
C0% = Average coumarin emission signal of the 0% phos. control
F100% = Average fluorescein emission signal of the 100% phos. control
F0% = Average fluorescein emission signal of the 0% phos. control %Inhibition = {1 - %Phos Sample/%Phos 0%Inhibition Ctl}*100

HepG2 cells [3] = assay: MTT assay for cell viability (cytotoxicity); format: cell-based, human
Protocol: as §1, §2

T1 sequence (P49841 whole entry): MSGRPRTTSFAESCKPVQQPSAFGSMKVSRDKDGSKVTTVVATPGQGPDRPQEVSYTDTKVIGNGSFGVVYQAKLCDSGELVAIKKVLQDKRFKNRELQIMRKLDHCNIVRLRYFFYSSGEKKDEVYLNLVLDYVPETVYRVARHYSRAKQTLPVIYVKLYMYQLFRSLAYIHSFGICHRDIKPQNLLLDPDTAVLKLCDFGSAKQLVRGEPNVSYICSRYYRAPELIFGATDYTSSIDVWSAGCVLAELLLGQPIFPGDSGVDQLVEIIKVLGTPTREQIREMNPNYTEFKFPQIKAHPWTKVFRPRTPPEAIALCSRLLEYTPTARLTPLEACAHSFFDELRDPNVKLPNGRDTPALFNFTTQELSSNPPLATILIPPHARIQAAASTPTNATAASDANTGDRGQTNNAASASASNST

inhibitory activity against GSK-3β at 30 µM (in words) (human GSK-3β) | IC50 (human GSK-3β) [µM] | melting point [°C] | Compound | Cell Glucose Uptake (%) (HepG2 cells [1]) | CC50 at 48 h [2] [µM] | toxicity against HepG2 cells (in words) (HepG2 cells [3])
no apparent inhibitory activity | > 30 | 147.4 to 148.3 | Nc1ncc(-c2ccc(NC(=O)c3ccccc3Br)cc2)c(-c2c[nH]c3ccc(Br)cc23)n1 [A13, N-(4-(2-amino-4-(5-bromo-1H-indol-3-yl)pyrimidin-5-yl)phenyl)-2-bromobenzamide] | 27% | > 25 | –
– | – | 291.7 to 292.4 | Cc1ccc(C(=O)Nc2ccc(-c3cnc(N)nc3-c3c[nH]c4ccc(Br)cc34)cc2)cc1 [A21, N-(4-(2-amino-4-(5-bromo-1H-indol-3-yl)pyrimidin-5-yl)phenyl)-4-methylbenzamide] | 24% | 6.9 | –
no apparent inhibitory activity | > 30 | 177.7 to 178.5 | Nc1ncc(-c2ccc(NC(=O)c3cc(Cl)cc(Cl)c3)cc2)c(-c2c[nH]c3ccc(Br)cc23)n1 [A26, N-(4-(2-amino-4-(5-bromo-1H-indol-3-yl)pyrimidin-5-yl)phenyl)-3,5-dichlorobenzamide] | 22% | 14.3 | –
– | – | 206.6 to 207.1 | Fc1ccccc1Nc1nccc(-c2c[nH]c3ccc(Br)cc23)n1 [B1, 4-(5-Bromo-1H-indol-3-yl)-N-(2-fluorophenyl) pyrimidin-2-amine] | 20% | 10.5 | –
– | – | 211.8 to 212.4 | Fc1cccc(Nc2nccc(-c3c[nH]c4ccc(Br)cc34)n2)c1 [B2, 4-(5-Bromo-1H-indol-3-yl)-N-(3-fluorophenyl) pyrimidin-2-amine] | no change | 10.7 | –
– | – | 246.8 to 247.7 | Fc1ccc(Nc2nccc(-c3c[nH]c4ccc(Br)cc34)n2)cc1 [B3, 4-(5-Bromo-1H-indol-3-yl)-N-(4-fluorophenyl) pyrimidin-2-amine] | 7.4% | 12.8 | –
– | – | 173.8 to 174.6 | Clc1ccccc1Nc1nccc(-c2c[nH]c3ccc(Br)cc23)n1 [B4, 4-(5-Bromo-1H-indol-3-yl)-N-(2-chlorophenyl) pyrimidin-2-amine] | 22% | > 25 | –
– | – | 273.5 to 274.8 | Clc1ccc(Nc2nccc(-c3c[nH]c4ccc(Br)cc34)n2)cc1 [B6, 4-(5-Bromo-1H-indol-3-yl)-N-(4-chlorophenyl) pyrimidin-2-amine] | 14.4% | 21.1 | –
– | – | 177.8 to 178.4 | Brc1ccc2[nH]cc(-c3ccnc(Nc4ccccc4Br)n3)c2c1 [B7, 4-(5-Bromo-1H-indol-3-yl)-N-(2-bromophenyl) pyrimidin-2-amine] | 26% | > 25 | –
– | – | 276.7 to 277.5 | Brc1ccc(Nc2nccc(-c3c[nH]c4ccc(Br)cc34)n2)cc1 [B9, 4-(5-Bromo-1H-indol-3-yl)-N-(4-bromophenyl) pyrimidin-2-amine] | 12.6% | 20.3 | –
– | – | 150.5 to 151.3 | FC(F)(F)c1ccccc1Nc1nccc(-c2c[nH]c3ccc(Br)cc23)n1 [B10, 4-(5-Bromo-1H-indol-3-yl)-N-(2-(trifluoromethyl)phenyl) pyrimidin-2-amine] | 20.2% | > 25 | –
– | – | 187.6 to 188.4 | Cc1ccccc1Nc1nccc(-c2c[nH]c3ccc(Br)cc23)n1 [B13, 4-(5-Bromo-1H-indol-3-yl)-N-(o-tolyl) pyrimidin-2-amine] | 14.9% | > 25 | –
– | – | 207.9 to 208.3 | COc1ccccc1Nc1nccc(-c2c[nH]c3ccc(Br)cc23)n1 [B16, 4-(5-Bromo-1H-indol-3-yl)-N-(2-methoxyphenyl) pyrimidin-2-amine] | 17% | 21.4 | –
– | – | 245.7 to 246.3 | COc1ccc(Nc2nccc(-c3c[nH]c4ccc(Br)cc34)n2)cc1 [B18, 4-(5-Bromo-1H-indol-3-yl)-N-(4-methoxyphenyl) pyrimidin-2-amine] | 6.1% | 6 | –
– | – | 110.5 to 111.3 | CC(C)c1ccccc1Nc1nccc(-c2c[nH]c3ccc(Br)cc23)n1 [B19, 4-(5-Bromo-1H-indol-3-yl)-N-(2-isopropylphenyl) pyrimidin-2-amine] | 13% | > 25 | –
– | – | 255.6 to 256.8 | COc1cc(Nc2nccc(-c3c[nH]c4ccc(Br)cc34)n2)cc(OC)c1 [B28, 4-(5-Bromo-1H-indol-3-yl)-N-(3,5-dimethoxyphenyl) pyrimidin-2-amine] | – | 10 | –
– | 5.85 | 263.3 to 264.2 | Fc1cccc(F)c1Nc1nccc(-c2c[nH]c3ccc(Br)cc23)n1 [B29, 4-(5-Bromo-1H-indol-3-yl)-N-(2,6-difluorophenyl) pyrimidin-2-amine] | 29% | 22.4 | no significant toxicity
– | 24.4 | 228.5 to 229.4 | Cc1cccc(C)c1Nc1nccc(-c2c[nH]c3ccc(Br)cc23)n1 [B30, 4-(5-Bromo-1H-indol-3-yl)-N-(2,6-dimethylphenyl) pyrimidin-2-amine] | 38% | 18.1 | no significant toxicity
– | – | 244.3 to 245.6 | COc1cccc(OC)c1Nc1nccc(-c2c[nH]c3ccc(Br)cc23)n1 [B31, 4-(5-Bromo-1H-indol-3-yl)-N-(2,6-dimethoxyphenyl) pyrimidin-2-amine] | 16% | 19.2 | –
– | – | – | Cn1sc(=O)n(Cc2ccccc2)c1=O [TDZD-8, 4-benzyl-2-methyl-1,2,4-thiadiazolidine-3,5-dione, reference compound] | 16% | > 25 | –
– | – | – | Nc1nccc(-c2c[nH]c3ccc(Br)cc23)n1 [meridianin C] | < 5% | 13 | –
